From US6727257B1, “5-(heterocyclic alkyl)-6-aryl-dihydropyrimidines” (Synaptic Pharmaceutical Corporation, priority 1994, dated 2004) come the findings set out here.

Each structure is given as a SMILES string. Where a name gives a salt, the structure may show the parent alone.

A word on the melting point: it is the temperature, or range, at which the solid turns liquid.

For `COCN1C(C)=NC(C)=C(C(=O)NCCCN2CCC(C(=O)OC)(c3ccccc3)CC2)C1c1ccc(F)c(F)c1` (stereo not drawn), the melting point was in the range of 53 to 57 °C.

For `CNC(=O)C1=C(C)N=C(C)N(CCCCCN2CCC(C(=O)OC)(c3ccccc3)CC2)C1c1ccc(F)cc1F` (stereo not drawn) (as salt: HCl), the melting point lay within 152 to 155 °C.

In turn, `COC(=O)C1=C(C)N=C(C)N(CCCCCN2CCC(C(=O)OC)(c3ccccc3)CC2)C1c1ccc(F)c(F)c1` (stereo not drawn) (as salt: HCl) [Example 23, 6-(3,4-Difluorophenyl)-1,6-dihydro-5-methoxycarbonyl-1-(5-(4-methoxycarbonyl-4-phenylpiperidin-1-yl)-pentyl)-2,4-dimethylpyrimidine] yielded a melting point of 170 to 176 °C.

As to `COC(=O)C1=C(C)N=C(C)N(CCCCCNCCCc2ccccc2)C1c1ccc(F)c(F)c1` (stereo not drawn) (as salt: HCl) [Example 61, 6-(3,4-Difluorophenyl)-1,6-dihydro-5-methoxycarbonyl-2,4-dimethyl-1-(5-(3-phenylpropylamino)pentyl)pyrimidine], the melting point was in the range of 95 to 97 °C.

Regarding `COC(=O)C1=C(C)NC(=O)N(C(=O)NCCCN2CCC(c3ccccn3)CC2)C1c1ccc(F)c(F)c1` (stereo not drawn) (as salt: hydrochloride) [Example 21, 6-(3,4-Difluorophenyl)-5-methoxycarbonyl-4-methyl-2-oxo-1-{N-[4-(2-pyridyl)-piperidine-1-yl]propyl)carboxamido-1,2,3,6-tetrahydropyrimidine Dihydrochloride], the melting point lay within 170 to 174 °C.

Turning to `COC(=O)C1=C(C)N=C(C)N(CCCC(O)CN2CCC(c3ccccn3)CC2)C1c1ccc(F)c(F)c1` (single isomer, unassigned; (+)) (as salt: HCl) [Example 62, (+)-6-(3,4-Difluorophenyl)-1,6-dihydro-1-(4-hydroxy-5-(4-(2-pyridyl)piperidin-1-yl)pentyl)-5-methoxycarbonyl-2,4-dimethylpyrimidine], the melting point fell in the range of 163 to 165 °C.
